Data reported in patent publication US8093028B2, “Engineered glycosyltransferases with expanded substrate specificity” (Wisconsin Alumni Research Foundation, priority 2007, dated 2012).
Like-named read-outs stand apart in the source and are kept apart here.

How the values were obtained:
OleD P67T/S132F/A242V [1] = biological target: T1, OleD P67T/S132F/A242V (Streptomyces antibioticus, UniProt Q53685, A242V/P67T/S132F); format: biochemical; conditions: novobiocic acid (FIG. 9: 1) as acceptor
T1 construct: made in house; host or cells: E. coli (site-directed mutant of pET28/OleD)
Procedure: Biotechnol. […] Reactions were incubated at 25° C. for 3 h. […] Supernatants were analyzed by analytical reverse-phase HPLC as described above. HPLC peak areas were integrated, and the product concentration calculated as a percent of the total peak area. All products were characterized by LC-MS.

OleD P67T/S132F/A242V [2] = biological target: T1, OleD P67T/S132F/A242V; format: biochemical; conditions: for Conversion rates (%), P67T/S132F/A242V: Table 3, 4-Me-umb (4) as acceptor, end point assay; for Conversion Rate (%), P67T/S132F/A242V: Table 2, acceptor 4 at 50 μM, NDP-sugar ~500 μM, 25° C., 3 h
Procedure: (§1) Reactions were carried out as described above with the following exceptions. The total volume was 50 μl and the acceptor FIG. 1: 4 was at 50 μM and the NDP-sugar at ˜500 μM. The NDP-sugars were used directly from RmlA-catalyzed reactions. […] Reactions were incubated at 25° C. for 3 h.
(§2) The total volume was 50 μl and the acceptor FIG. 1: 4 or FIG. 1: 1 was at 50 μM and the NDP-sugar at ˜500 μM. The NDP-sugars were used directly from RmlA-catalyzed reactions. […] Reactions were incubated at 25° C. for 3 h.
(§3) For activity toward FIG. 1: 4, aliquots (25 μl) were quenched with 25 μl of an 8:1 mixture of ice-cold MeOH/HCl, and centrifuged at 14,000 rpm for 10 min. […] HPLC peak areas were integrated, and the product concentration calculated as a percent of the total peak area. All products were characterized by LC-MS. Mass spectra were obtained using electrospray ionization on an Agilent 1100 HPLC-MSD SL quadrapole mass spectrometer connected to a UV/Vis diode array detector.

WT OleD = biological target: T2, WT OleD (Streptomyces antibioticus, UniProt Q53685, P55A/R82V/R83E/T84P); format: biochemical; conditions: for Conversion rates (%), WT: Table 3, 4-Me-umb (4) as acceptor, end point assay; for Conversion Rate (%), WT: Table 2, acceptor 4 at 50 μM, NDP-sugar ~500 μM, 25° C., 3 h
T2 construct: made in house; host or cells: E. coli BL21(DE3)pLysS, plasmid pET28/OleD
Procedure: as §1, §2, §3

OleD A242V = biological target: T3, OleD A242V (Streptomyces antibioticus, UniProt Q53685, A242V/P55A/R82V/R83E/T84P); format: biochemical; conditions: Table 3, 4-Me-umb (4) as acceptor, end point assay
T3 construct: made in house; host or cells: E. coli BL21(DE3)pLysS (error-prone PCR clone in pET28a)
Procedure: as §1, §2, §3

OleD S132F = biological target: T4, OleD S132F (Streptomyces antibioticus, UniProt Q53685, P55A/R82V/R83E/S132F/T84P); format: biochemical; conditions: Table 3, 4-Me-umb (4) as acceptor, end point assay
T4 construct: made in house; host or cells: E. coli (site-directed mutant of pET28/OleD)
Procedure: as §1, §2, §3

OleD P67T = biological target: T5, OleD P67T (Streptomyces antibioticus, UniProt Q53685, P55A/P67T/R82V/R83E/T84P); format: biochemical; conditions: Table 3, 4-Me-umb (4) as acceptor, end point assay
T5 construct: made in house; host or cells: E. coli (site-directed mutant of pET28/OleD)
Procedure: as §1, §2, §3

[3] = test system: ASP OleD (A242V/S132F/P67T); test: Kinetic parameters with model acceptors phenol, thiophenol, aniline; format: biochemical, Streptomyces antibioticus; conditions: UDP-Glc donor
Excerpt: To confirm O—, S- and N-glucoside formation, iterative glycosylation, and determine anomeric stereoselectivity, a select set of OleD-catalyzed reactions with simple aromatic model acceptors phenol (FIG. 17: 8), thiophenol (FIG. 17: 6), and aniline (FIG. 17: 34) were studied in depth.

[4] = test system: CC(C)=CCc1cc(C(=O)Nc2c(O)c3ccc(O)c(C)c3oc2=O)ccc1O; test: purified protein, by the assay type; conditions: other: named substrate varied, other substrate fixed at 5 mM; pH 8.0

| Molecule | Conversion rates (%), P67T/S132F/A242V (OleD P67T/S132F/A242V [2]) [%] | Conversion rates (%), WT (WT OleD) [%] | Conversion rates (%), A242V (OleD A242V) [%] | Conversion rates (%), S132F (OleD S132F) [%] | Conversion rates (%), P67T (OleD P67T) [%] | catalytic efficiency (kcat/Km) improvement of ASP versus WT OleD [3] [fold] | also measured |
| --- | --- | --- | --- | --- | --- | --- | --- |
| [N-]=[N+]=NCC1OC(OP(=O)(O)OP(=O)(O)OC[C@H]2O[C@@H](n3ccc(=O)[nH]c3=O)[C@H](O)[C@@H]2O)C(O)C(O)C1O (stereo partly shown) [UDP-6-azido-glc (11), UDP-6-azido-glucose] | 41 | 0 | 2 | 1 | 2 | – | donor acceptance, P67T/S132F/A242V (OleD P67T/S132F/A242V [1]): albeit poorly |
| Nc1ccccc1 [aniline (FIG. 17: 34), aniline] | – | – | – | – | – | 5 | – |
| Oc1ccccc1 [phenol (FIG. 17; 8), phenol] | – | – | – | – | – | 25 | – |
| Sc1ccccc1 [thiophenol (FIG. 17: 6), thiophenol] | – | – | – | – | – | 4 | – |
| OleD P67T/I112K/A242V (Streptomyces antibioticus; A242V/I112K/P67T) | – | – | – | – | – | – | Km [4]: 800 µM; kcat [4]: 0.0855 s⁻¹ |
| UDP-4-deoxy-glc [UDP-4-deoxy-glc (12)] | 22 | 0 | 0 | 0 | 0 | – | – |
| UDP-6-deoxy-glucose [UDP-6-deoxy-glc (8)] | 85 | 6 | 6 | 10 | 11 | – | Conversion Rate (%), P67T/S132F/A242V (OleD P67T/S132F/A242V [2]): 85%; Conversion Rate (%), WT (WT OleD): 6%; Conversion rates (%), A242V (OleD A242V; listed as FIG. 3: 8): ≤ 12%; Conversion rates (%), S132F (OleD S132F; listed as FIG. 3: 8): ≤ 12%; Conversion rates (%), P67T (OleD P67T; listed as FIG. 3: 8): ≤ 12% |
| UDP-6-thio-glucose [FIG. 3: 9] | – | – | – | – | – | – | Conversion Rate (%), P67T/S132F/A242V (OleD P67T/S132F/A242V [2]): 47%; Conversion Rate (%), WT (WT OleD; listed as 9): 1% |
